What was measured:
[1] = biological target: ACK1 (Homo sapiens, UniProt Q07912); experiment: Inhibitory activity against ACK1 kinase; format: biochemical
Description: (§1) The inhibitory activities of the compounds of the present disclosure against two kinases, GCK and ACK1, were measured, and the IC50 values thereof were calculated.

[2] = biological target: T1, GCK (Homo sapiens, UniProt Q12851); experiment: Inhibitory activity against GCK kinase; format: biochemical
T1 sequence (Q12851 1-820): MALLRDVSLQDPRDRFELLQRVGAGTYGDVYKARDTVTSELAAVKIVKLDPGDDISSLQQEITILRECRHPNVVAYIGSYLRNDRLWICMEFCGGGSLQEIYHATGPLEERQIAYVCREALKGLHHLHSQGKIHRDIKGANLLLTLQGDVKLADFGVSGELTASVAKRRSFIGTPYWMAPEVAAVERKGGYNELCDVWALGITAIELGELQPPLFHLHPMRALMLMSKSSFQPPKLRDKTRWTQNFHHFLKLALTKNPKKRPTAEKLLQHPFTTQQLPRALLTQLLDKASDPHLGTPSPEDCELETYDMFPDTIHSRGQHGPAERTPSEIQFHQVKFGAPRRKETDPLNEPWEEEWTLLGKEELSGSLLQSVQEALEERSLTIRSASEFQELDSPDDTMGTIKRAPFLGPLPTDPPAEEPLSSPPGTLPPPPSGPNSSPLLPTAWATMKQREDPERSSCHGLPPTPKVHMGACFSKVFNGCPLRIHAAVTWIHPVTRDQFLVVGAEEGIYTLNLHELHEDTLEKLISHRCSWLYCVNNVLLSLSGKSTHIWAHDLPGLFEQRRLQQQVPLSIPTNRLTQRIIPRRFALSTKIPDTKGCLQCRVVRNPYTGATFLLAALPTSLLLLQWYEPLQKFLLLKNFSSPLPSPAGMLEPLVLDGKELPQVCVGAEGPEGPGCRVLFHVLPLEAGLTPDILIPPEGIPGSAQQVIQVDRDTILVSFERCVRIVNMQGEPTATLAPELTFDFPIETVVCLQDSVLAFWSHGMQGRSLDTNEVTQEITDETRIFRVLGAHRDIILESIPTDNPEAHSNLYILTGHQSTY
Description: as §1

[3] = tested on: OCI-AML3 (N-Ras Q61L); experiment: Proliferation inhibitory activity, OCI-AML3 cell line; format: cell-based; details: Homo sapiens, OCI-AML-3
Description: (§2) The inhibitory activities of the compounds of the present disclosure against the proliferation of the mt-NRAS (G12D) Ba/F3 and OCI-AML3 (mt-NRAS) cell lines were measured, and the […] values thereof were calculated.
Referring to the results in Table 2, it can be seen that the compound of the present disclosure has inhibitory activity against the proliferation of the human acute myeloid leukemia cell line (OCI-AML3) having the NRAS mutant gene, and the effect thereof is remarkable. Therefore, it can be seen that the compound of the present disclosure is particularly effective as a therapeutic agent for acute myeloid leukemia (AML).

[4] = tested on: Ba/F3 (N-Ras G12D); experiment: Proliferation inhibitory activity, mt-NRAS (G12D) Ba/F3 cell line; format: cell-based; details: Mus musculus, BaF3
Description: as §2

Sequence of ACK1 (Q07912 whole entry): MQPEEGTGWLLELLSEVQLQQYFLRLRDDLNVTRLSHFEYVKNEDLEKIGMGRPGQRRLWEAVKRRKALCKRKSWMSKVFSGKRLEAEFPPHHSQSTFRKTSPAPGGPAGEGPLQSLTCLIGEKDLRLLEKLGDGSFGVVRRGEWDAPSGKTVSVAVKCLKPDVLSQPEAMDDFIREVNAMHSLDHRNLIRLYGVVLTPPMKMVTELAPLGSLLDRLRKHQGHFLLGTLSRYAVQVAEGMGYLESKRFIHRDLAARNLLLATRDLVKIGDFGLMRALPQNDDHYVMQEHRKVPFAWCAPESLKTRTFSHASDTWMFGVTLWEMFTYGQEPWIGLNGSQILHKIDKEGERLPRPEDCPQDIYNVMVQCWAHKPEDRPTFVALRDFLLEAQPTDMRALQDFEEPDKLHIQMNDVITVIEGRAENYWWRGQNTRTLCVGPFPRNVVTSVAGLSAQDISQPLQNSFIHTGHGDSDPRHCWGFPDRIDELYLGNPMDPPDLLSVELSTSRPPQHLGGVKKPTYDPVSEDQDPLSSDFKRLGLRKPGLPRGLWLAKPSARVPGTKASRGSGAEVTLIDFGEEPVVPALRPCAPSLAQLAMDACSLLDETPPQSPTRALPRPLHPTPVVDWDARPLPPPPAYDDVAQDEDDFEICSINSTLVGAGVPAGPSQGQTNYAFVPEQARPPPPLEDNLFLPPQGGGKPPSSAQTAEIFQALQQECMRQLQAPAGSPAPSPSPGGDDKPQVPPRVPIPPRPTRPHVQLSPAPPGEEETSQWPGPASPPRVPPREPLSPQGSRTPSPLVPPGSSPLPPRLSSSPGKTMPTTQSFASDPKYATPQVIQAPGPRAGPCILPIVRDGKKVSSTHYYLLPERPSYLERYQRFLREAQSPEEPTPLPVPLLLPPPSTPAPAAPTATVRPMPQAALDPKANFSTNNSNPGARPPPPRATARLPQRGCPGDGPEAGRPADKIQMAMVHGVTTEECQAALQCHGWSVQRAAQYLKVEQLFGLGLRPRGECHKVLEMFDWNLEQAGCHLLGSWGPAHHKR

IC50 [1]: < 0.1 µM
IC50 [2]: 0.1 to 1 µM
GI50 [3]: < 0.5 µM
GI50 [4]: < 0.5 µM
Compound: COc1ccccc1-c1cnc(-c2ccc(C)c(N3Cc4cnc(Nc5ccc(C)nc5)nc4N(C)C3=O)c2)[nH]1 [Compound No. 3, 3-(5-(5-(2-methoxyphenyl)-1H-imidazol-2-yl)-2-methylphenyl)-1-methyl-7-((6-methylpyridin-3-yl)amino)-3,4-dihydropyrimido[4,5-d]pyrimidin-2(1H)-one]
